We go through seven compounds from US8889638B2, “Stimulus-triggered prodrugs” (The Regents of the University of California, priority 2010, dated 2014).

The target of series [1] is T1, MMP-9 (catalytic domain, human, recombinant) (Homo sapiens, UniProt P14780).
T1 construct: MMP-9 (catalytic domain, human, recombinant); purchased BIOMOL International
Nature of the series: MMP-9 inhibition assay of boronic ester proinhibitors (IC50; activation with H2O2). In kind it is biochemical. Particulars: for inhibition of MMP-9 with no hydrogen peroxide present / inhibition at 10 µM: 10 μM; for inhibition at 10 µM: 1 h of activation, read-out: inhibition of MMP-9 after activation with 100 μM H2O2; for IC50: proinhibitors without H2O2, read-out: IC50 against MMP-9. The method, then:
(§1) MMP-9 (catalytic domain, human, recombinant) and MMP-12 (catalytic domain, human, recombinant) were purchased from Enzo Life Sciences. The assays were carried out in 96-well plates using a Bio-Tek Flx 800 plate reader. IC50 values were obtained for proinhibitors B17 and B18 against MMP-9 and MMP-12. Serial dilutions of the compounds dissolved in DMSO were incubated at 37° C. for 30 minutes with 20 μL of the appropriate MMP (0.45 U/mL for MMP-9 and 0.35 U/mL for MMP-12) in MMP assay buffer (50 mM HEPES, 10 mM CaCl2, 0.10% Brij-35, pH 7.5), for a total volume of 99 pt. The reaction was initiated by the addition of 1 μL (400 μM) of the fluorescent substrate (Mca-Pro-Leu-Gly-Leu-Dpa-Ala-Arg-NH2 where Mca=(7-methoxycoumarin-4-yl)-acetyl and Dpa=N-3-(2,4-dinitrophenyl)-L-α-β-diaminopropionyl)) and kinetic activity was measured every minute for 20 min with excitation and emission wavelengths at 335 nm and 405 nm, respectively. Measurements were performed in duplicate. The percent inhibition was plotted versus the inhibitor concentration. A linear fit of the data for each experiment gives the IC50 value of the inhibitor where y=50%.
(§2) MMP activity in the presence of H2O2 was evaluated with both MMP-9 and MMP-12 with 1 h of activation at concentrations close to their IC50 values. Using the calculated rate constants for the protected ZBGs B19 and B20, it was determined that 1 h of activation time for each proinhibitor with 100 μM H2O2 will provide enough 1,2-HOPO-2 or PY-2 to inhibit the MMPs at 50%. For example, for proinhibitor B17 with MMP-9, if the rate=k[B17][H2O2] and k=3.9 M^−1s^−1, [B17]=10 μM, and [H2O2]=100 μM, the rate of conversion would be 3.9×10^−9 M/s. Therefore, activation for 1 h would release 14 μM 1,2-HOPO-2, or enough inhibitor to provide approximately 50% inhibition of MMP-9 (IC50 value for 1,2-HOPO-2 against MMP-9 is ˜6 μM).
(§3) In each well, 1 μL of proinhibitors B17 and B18 and the inhibitors 1,2-HOPO-2 and PY-2 in DMSO (1 mM for MMP-9 or 5 μM for MMP-12) were incubated for 1 h at 37° C. with 10 μL H2O2 (1 mM in HEPES buffer, pH 7.5) in MMP assay buffer for a total volume of 79 pt. […] After activation of the proinhibitors, 20 μL of the appropriate MMP (0.45 U/mL for MMP-9 and 0.35 U/mL for MMP-12) was added and incubated for an additional 30 min. The reaction was initiated by the addition of 1 pt (400 μM) of the fluorescent substrate and kinetic activity was measured every minute for 20 min with excitation and emission wavelengths at 335 nm and 405 nm, respectively. Enzyme activity with inhibitor was calculated with respect to the control experiment (no inhibitor present). Measurements were performed in duplicate in two independent experiments.

The target in series [2] is T2, MMP-12 (catalytic domain, human recombinant) (Homo sapiens, UniProt P39900). Nature of the series: MMP-12 inhibition assay of boronic ester proinhibitors (IC50; activation with H2O2). It is filed as biochemical. Details: MMP-12 (catalytic domain, human, recombinant); purchased Enzo Life Sciences. To be noted: for inhibition of MMP-12 with no hydrogen peroxide present / inhibition at 0.05 µM: 50 nM; for inhibition at 0.05 µM: 1 h of activation, read-out: inhibition of MMP-12 after activation with 100 μM H2O2; for IC50 against MMP-12: proinhibitors without H2O2. The method, then:
as §1, §2, §3

Series [3] is described as follows: Cleavage of sulfonate ester PZBGs and proMMPi by H2O2 (UV-Vis, rate constant, HPLC). It is filed as physicochemical. Particulars: 50 μM in HEPES buffer, room temperature. The method, then: (§4) Absorption spectra of compounds were taken on a Perkin-Elmer Lambda 25 UV-Visible Spectrophotometer. To a 1.0 mL solution at 0.05 mM concentration of each compound in HEPES buffer (50 mM, pH 7.5) was added H2O2 (10 μL, 0.09M in HEPES) and absorption spectra were monitored over time at room temperature. Hydrolytic stability was measured by monitoring each sample in HEPES buffer over a 24 hour time period.
The pseudo-first order rate constant was calculated following literature procedure. To a 1.0 mL solution of compounds PZBG-1a, PZBG-1b, PZBG-1e, PZBG-5a, and PZBG-5b in HEPES buffer at 50 μM was added H2O2 to final concentrations of 150 μM, 250 μM, 500 μM, 750 μM, and 900 μM. Spectra were monitored over 15-30 min at room temperature with at least 50 spectra recorded at every concentration. The change in absorption at 298 nm for PZBG-1a and PZBG-1b were monitored, while the change in absorption at 288 nm was recorded for PZBG-1e, and 310 nm for PZBG-5a and PZBG-5b. The rate constant (kobs) was found from the linear slope of ln [(A−AZBG)/(Ao−AZBG)] vs. time where AZBG is the absorbance of a 50 μM sample of the ZBG or full-length inhibitor and AO is the initial absorbance of PZBG-1a, PZBG-1b, PZBG-1e, PZBG-5a, and PZBG-5b. The rate of conversion was determined from the slope of the line of kobs vs. [H2O2].
Analytical HPLC was performed on a HP Series 1050 system equipped with a Vydac® C18 reverse phase column (218 TP, 250×4.6 mm, 5 μm). […] Starting with 95% A and 5% B, an […] gradient was run for 15 min to a final solvent mixture of 5% A and 95% B, which was held for 5 min before ramping back down to 95% A and 5% B in 2 min and holding for an additional 4 min. Compounds ZBG-1a and PZBG-1a were prepared in HEPES buffer (50 mM, pH 7.5) at a concentration of 1 mM and retention times were determined. To evaluate cleavage by H2O2, a 1 mM solution of PZBG-1a in HEPES buffer was reacted with a 20-fold excess of H2O2 before analyzing under identical HPLC conditions as before.

Series [4] in a line: Hydrolytic stability of sulfonate esters in HEPES buffer. It is filed as physicochemical. The method, then: as §4
For series [5], the target named is T2, MMP-12 (catalytic domain, human recombinant). Nature of the series: MMP-12 fluorescence-based inhibition assay with and without H2O2 (sulfonate ester proMMPi). It is filed as biochemical. Further details: MMP-12 (catalytic domain, human recombinant); purchased Enzo Life Sciences. Particulars: 50 nM; for inhibition at 0.05 µM: 30 min of incubation. The method, then:
MMP-12 (catalytic domain, human recombinant) was purchased from Enzo Life Sciences. The assays were carried out in a 96-well plate using a Bio-Tex Flx 800 plate reader. The activity of MMP-12 was evaluated after a 30 min incubation in the presence of H2O2 and proMMPi. The concentration of proMMPi used was selected to be close to the IC50 value of the parent full-length inhibitors, 1,2-HOPO-2 and PY-2[38]. In each well, 1 μL of proinhibitors PZBG-5a, PZGB-5b, and PZBG-6a and the inhibitors 1,2-HOPO-2 and PY-2 in DMSO (5 μM) were incubated for 30 min at 37° C. with 20 μL of MMP-12 (0.35 U/mL), 10 μL H2O2 (1 mM in HEPES buffer, pH 7.5), and MMP assay buffer (50 mM HEPES, 10 mM CaCl2, 0.10% Brij-35, pH 7.5) for a total volume of 99 μL. […] The reaction was initiated by the addition of 1 μL (400 μM) of the fluorescent substrate (Mca-Pro-Leu-Gly-Leu-Dpa-Ala-Arg-NH2 where Mca=(7-methoxycoumarin-4-yl)-acetyl and Dpa=N-3-(2,4-dinitrophenyl)-L-α-β-diaminopropionyl)) after the 30 minute incubation period and kinetic activity was measured every minute for 20 minutes with excitation and emission wavelengths at 335 nm and 405 nm, respectively. Enzyme activity with inhibitor was calculated with respect to the control experiment—no inhibitor present. Measurements were performed in duplicate in two independent experiments.

[6] abbreviates: read-out: inhibition of MMP-12 after treatment with 100 μM H2O2.
The mark [7] stands for this setting: read-out: inhibition of MMP-12 before treatment with H2O2.

T2 sequence (P39900 106-263 limits assumed): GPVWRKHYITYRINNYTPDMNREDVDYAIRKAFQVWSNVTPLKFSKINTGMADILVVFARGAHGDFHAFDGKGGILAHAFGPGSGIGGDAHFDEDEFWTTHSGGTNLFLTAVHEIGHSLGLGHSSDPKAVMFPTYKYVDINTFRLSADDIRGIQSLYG
T1 sequence (P14780 107-444 limits assumed): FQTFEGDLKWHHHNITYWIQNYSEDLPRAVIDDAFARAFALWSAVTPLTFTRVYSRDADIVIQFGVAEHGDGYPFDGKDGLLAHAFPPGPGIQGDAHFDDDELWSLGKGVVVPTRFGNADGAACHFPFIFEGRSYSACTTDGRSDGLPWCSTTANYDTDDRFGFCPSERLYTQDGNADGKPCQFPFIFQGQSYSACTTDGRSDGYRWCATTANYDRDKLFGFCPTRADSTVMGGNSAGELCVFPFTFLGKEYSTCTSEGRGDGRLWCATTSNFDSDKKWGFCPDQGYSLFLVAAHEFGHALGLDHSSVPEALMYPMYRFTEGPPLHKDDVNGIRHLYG

In general, inhibition refers to the relative decrease from the control value, in per cent. The IC50 is the concentration at which inhibition is half-maximal. On to `CC1(C)OB(c2ccc(COn3c(C(=O)NCc4ccc(-c5ccccc5)cc4)cccc3=O)cc2)OC1(C)C` [Compound B17, N-([1,1′-biphenyl]-4-ylmethyl)-6-oxo-1-((4-(4,4,5,5-tetramethyl-1,3,2-dioxaborolan-2-yl)benzyl)oxy)-1,6-dihydropyridine-2-carboxamide], for which, in series [1], the “inhibition of MMP-9 with no hydrogen peroxide present” value is on record as “little inhibition”, the inhibition at 10 µM was 50% and the IC50 was above 1000 µM. In series [2], the “inhibition of MMP-12 with no hydrogen peroxide present” value was “little inhibition”, the inhibition at 0.05 µM was 50% and the “IC50 against MMP-12” value is “micromolar range”.

Turning to `O=c1ccccn1OS(=O)(=O)c1ccccc1` [PZBG-1a, 2-Oxopyridin-1(2H)-yl benzenesulfonate], the “pseudo-first order rate constant with an excess of H2O2” value in series [3] was determined as 0.7 M⁻¹ s⁻¹. Besides, the cleavage in buffer in series [4] (in 6 h) is around 50%.

Turning to `O=C(NCc1ccc(-c2ccccc2)cc1)c1cccc(=O)n1OS(=O)(=O)c1ccccc1` [PZBG-5a, 6-(([1,1′-Biphenyl]-4-ylmethyl)carbamoyl)-2-Oxopyridin-1(2H)-yl benzenesulfonate], the “pseudo-first order rate constant with an excess of H2O2 (full-length proMMPi)” value in series [3] stood at 0.3 M⁻¹ s⁻¹. Moreover, the “hydrolysis in buffer alone” value in series [4] (after 9 h) is on record as around 50%. Moreover, the inhibition at 0.05 µM in series [5] (setting [6]) was around 30%; in series [5] (setting [7]) it was around 20%.

With `Cc1ccc(S(=O)(=O)On2ccccc2=O)cc1` [PZBG-1b, 2-Oxopyridin-1(2H)-yl-4-methylbenzenesulfonate], the “pseudo-first order rate constant with an excess of H2O2” value in series [3] came to 0.3 M⁻¹ s⁻¹. For the same compound, in series [4] (in 24 h), the cleavage in buffer is recorded as around 30%.

`CC1(C)OB(c2ccc(COc3c(C(=O)NCc4ccc(-c5ccccc5)cc4)occc3=O)cc2)OC1(C)C` [Compound B18, N-([1,1′-biphenyl]-4-ylmethyl)-4-oxo-3-((4-(4,4,5,5-tetramethyl-1,3,2-dioxaborolan-2-yl)benzyl)oxy)-4H-pyran-2-carboxamide]: in series [1], the “inhibition of MMP-9 with no hydrogen peroxide present” value is “little inhibition”, the inhibition at 10 µM was found to be 50% and the concentration for half-maximal inhibition (IC50) is above 1000 µM. Further, in series [2], the “inhibition of MMP-12 with no hydrogen peroxide present” value was “little inhibition”, the inhibition at 0.05 µM came out at 50% and the “IC50 against MMP-12” value is given as “micromolar range”.

Turning to `O=C(NCc1ccc(-c2ccccc2)cc1)c1occc(=O)c1OS(=O)(=O)c1ccccc1` [PZBG-6a, 2-(([1,1′-Biphenyl]-4-ylmethyl)carbamoyl)-4-oxo-4H-pyran-3-yl benzenesulfonate], the “change in inhibitory activity against MMP-12 upon exposure to H2O2” value in series [5] (negative control) is listed as “no significant change in inhibitory activity”.

Turning to `O=C(O)c1ccc(S(=O)(=O)On2c(C(=O)NCc3ccc(-c4ccccc4)cc3)cccc2=O)cc1` [PZBG-5b, 4-(((6-(([1,1′-Biphenyl]-4-ylmethyl)carbamoyl)-2-Oxopyridin-1(2H)yl)oxy)sulfonyl)benzoic acid], in series [3], the “pseudo-first order rate constant with an excess of H2O2 (full-length proMMPi)” value turned out to be 1.1 M⁻¹ s⁻¹. The “hydrolysis in buffer alone” value in series [4] (after 3 h) is listed as around 50%. Further, the inhibition at 0.05 µM was around 50% in series [5] (setting [6]) and around 30% in series [5] (setting [7]).
